Experimental data: patent US20110118262A1, “Pyrrolidinyl and Piperidinyl Compounds Useful as NHE-1 Inhibitiors” (BOEHRINGER INGELHEIM INTERNATIONAL GMBH, priority 2008, published 2011)
pIC50: −log10 of the molar value.

Biological target: T1, NHE-1 (Homo sapiens, UniProt P19634)
T1 construct: endogenous in cells; host or cells: HT-29
Experiment: Evaluation of NHE-1 Inhibition (pHi) in HT-29 cells
Type: cell-based
Conditions: BCECF dye, 50% inhibition of the intracellular pH recovery, read-out: NHE1 HT29 pHi IC50
Method: Evaluation of NHE-1 Inhibition (pHi)
HT-29 cells resuspended in DMEM supplemented with 10% FBS, 1% NEAA, and 1% Penn-Strep are seeded at 10,000 cells/well in collagen coated 384 well plates which are then incubated for 24 hours at 37° C. The next day, the medium is removed and the cells are dye (Invitrogen's BCECF) loaded for 30 minutes at 37° C., washed three times with an acid loading buffer (10 mM NH4Cl, 1.8 mM CaCl2, 90 mM Choline Cl, 5 mM Glucose, 15 mM Hepes, 5 mM KCl, 1 mM MgCl2, adjusted to pH 7.5 with KOH) and further incubated at RT for 30 minutes.
At the end of the incubation, the buffer is removed and 5 uL of fresh acid loading buffer is added to each well to prevent the dessication of the cells. The plate is placed in a Hamamatsu FDSS6000 instrument and candidate compounds are added to the cells.

T1 sequence (P19634 whole entry): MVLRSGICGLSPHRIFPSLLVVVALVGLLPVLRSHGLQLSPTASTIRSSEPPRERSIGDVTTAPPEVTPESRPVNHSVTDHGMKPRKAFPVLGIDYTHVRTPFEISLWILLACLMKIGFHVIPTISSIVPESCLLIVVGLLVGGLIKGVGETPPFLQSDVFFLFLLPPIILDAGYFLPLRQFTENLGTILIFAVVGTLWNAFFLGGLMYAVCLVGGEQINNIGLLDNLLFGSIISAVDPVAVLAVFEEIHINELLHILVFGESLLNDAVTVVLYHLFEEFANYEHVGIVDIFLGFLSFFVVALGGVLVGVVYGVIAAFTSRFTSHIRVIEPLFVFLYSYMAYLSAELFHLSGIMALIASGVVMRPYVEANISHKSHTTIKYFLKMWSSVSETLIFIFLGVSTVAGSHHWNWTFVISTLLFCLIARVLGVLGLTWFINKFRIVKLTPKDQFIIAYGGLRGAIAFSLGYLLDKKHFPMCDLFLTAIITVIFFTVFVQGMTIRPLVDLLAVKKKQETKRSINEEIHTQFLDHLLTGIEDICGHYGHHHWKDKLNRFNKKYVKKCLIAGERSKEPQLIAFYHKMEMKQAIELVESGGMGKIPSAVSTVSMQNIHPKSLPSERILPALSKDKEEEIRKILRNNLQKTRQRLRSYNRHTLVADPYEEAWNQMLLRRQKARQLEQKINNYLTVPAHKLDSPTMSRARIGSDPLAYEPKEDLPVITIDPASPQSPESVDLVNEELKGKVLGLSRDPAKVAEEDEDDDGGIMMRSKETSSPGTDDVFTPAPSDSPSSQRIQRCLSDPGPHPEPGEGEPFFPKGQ

SMILES | pIC50
CC(=O)N1CCC(c2cc(C)c(C(=O)NC(=N)N)cc2S(C)(=O)=O)CC1 [N-[4-(1-Acetyl-piperidin-4-yl)-5-methanesulfonyl-2-methyl-benzoyl]-guanidine] | 7.92
N=C(N)NC(=O)c1ccc(C2CCN(C(=O)c3ccccc3)CC2)c(C(F)(F)F)c1 [N-[4-(1-Benzoyl-piperidin-4-yl)-3-trifluoromethyl-benzoyl]-guanidine] | 7.35
COCC(=O)N1CCC(c2cc(OC)c(C(=O)NC(=N)N)cc2C(F)(F)F)CC1 [N-{2-Methoxy-4-[1-(2-methoxy-acetyl)-piperidin-4-yl]-5-trifluoromethyl-benzoyl}-guanidine] | 8.05
COc1cc(C2CCN(C(=O)c3ccc4c(c3)CCC(=O)N4)CC2)c(C(F)(F)F)cc1C(=O)NC(=N)N [N-{2-Methoxy-4-[1-(2-oxo-1,2,3,4-tetrahydro-quinoline-6-carbonyl)-piperidin-4-yl]-5-trifluoromethyl-benzoyl}-guanidine] | 8.40
COc1cc(C2CCN(C(=O)c3ccn[nH]3)CC2)c(C(F)(F)F)cc1C(=O)NC(=N)N [N-{2-Methoxy-4-[1-(2H-pyrazole-3-carbonyl)-piperidin-4-yl]-5-trifluoromethyl-benzoyl}-guanidine] | 8.22
COc1cc(C2CCN(C(=O)c3ccccn3)CC2)c(C(F)(F)F)cc1C(=O)NC(=N)N [N-{2-Methoxy-4-[1-(pyridine-2-carbonyl)-piperidin-4-yl]-5-trifluoromethyl-benzoyl}-guanidine] | 7.37
Cc1cc(C2CCN(C(=O)c3ccc4c(c3)CCC(=O)N4)CC2)c(C(F)(F)F)cc1C(=O)NC(=N)N [N-{2-Methyl-4-[1-(2-oxo-1,2,3,4-tetrahydro-quinoline-6-carbonyl)-piperidin-4-yl]-5-trifluoromethyl-benzoyl}-guanidine] | 7.20
Cc1ccc(C(=O)N2CCC(c3cc(C)c(C(=O)NC(=N)N)cc3C(F)(F)F)CC2)cn1 [N-{2-Methyl-4-[1-(6-methyl-pyridine-3-carbonyl)-piperidin-4-yl]-trifluoromethyl-benzoyl}-guanidine] | 7.09
Cc1cc(C2CCN(C(=O)c3ccc(=O)[nH]c3)CC2)c(C(F)(F)F)cc1C(=O)NC(=N)N [N-{2-Methyl-4-[1-(6-oxo-1,6-dihydro-pyridine-3-carbonyl)-piperidin-4-yl]-5-trifluoromethyl-benzoyl}-guanidine] | 7.52
Cc1cc(C2CCN(C(=O)c3ncco3)CC2)c(C(F)(F)F)cc1C(=O)NC(=N)N [N-{2-Methyl-4-[1-(oxazole-2-carbonyl)-piperidin-4-yl]-5-trifluoromethyl-benzoyl}-guanidine] | 7.92
Cc1cc(C2CCN(C(=O)c3cccnc3)CC2)c(C(F)(F)F)cc1C(=O)NC(=N)N [N-{2-Methyl-4-[1-(pyridine-3-carbonyl)-piperidin-4-yl]-5-trifluoromethyl-benzoyl}-guanidine] | 7.52
Cc1cc(C2CCN(C(=O)c3ccncc3)CC2)c(C(F)(F)F)cc1C(=O)NC(=N)N [N-{2-Methyl-4-[1-(pyridine-4-carbonyl)-piperidin-4-yl]-5-trifluoromethyl-benzoyl}-guanidine] | 8.15
N=C(N)NC(=O)c1ccc(C2CCN(C(=O)c3cccc(C(F)(F)F)c3)CC2)c(C(F)(F)F)c1 [N-{3-Trifluoromethyl-4-[1-(3-trifluoromethyl-benzoyl)-piperidin-4-yl]-benzoyl}-guanidine] | 6.60
N=C(N)NC(=O)c1ccc(C2CCN(C(=O)c3ccc(C(F)(F)F)cc3)CC2)c(C(F)(F)F)c1 [N-{3-Triuoromethyl-4-[1-(4-trifluoromethyl-benzoyl)-piperidin-4-yl]-benzoyl}-guanidine] | 6.47
COCC(=O)N1CCC(c2ccc(C(=O)NC(=N)N)cc2S(C)(=O)=O)CC1 [N-{3-methanesulfonyl-4-[1-(2-methoxy-acetyl)-piperidin-4-yl]-benzoyl}-guanidine] | 7.62
CS(=O)(=O)c1cc(C(=O)NC(=N)N)ccc1C1CCN(C(=O)c2cccc(C(F)(F)F)c2)CC1 [N-{3-methanesulfonyl-4-[1-(3-trifluoromethyl-benzoyl)-piperidin-4-yl]-benzoyl}-guanidine] | 7.27
CCC(=O)N1CCC(c2ccc(C(=O)NC(=N)N)cc2S(C)(=O)=O)CC1 [N-{3-methanesulfonyl-4-[1-propionyl-piperidin-4-yl]-benzoyl}-guanidine] | 7.68
Cc1cc(C(=O)N2CCC(c3ccc(C(=O)NC(=N)N)cc3C(F)(F)F)CC2)nn1C [N-{4-[1-(1,5-Dimethyl-1H-pyrazole-3-carbonyl)-piperidin-4-yl]-3-trifluoromethyl-benzoyl}-guanidine] | 7.70
Cn1ccnc1C(=O)N1CCC(c2ccc(C(=O)NC(=N)N)cc2C(F)(F)F)CC1 [N-{4-[1-(1-Methyl-1H-imidazole-2-carbonyl)-piperidin-4-yl]-3-trifluoromethyl-benzoyl}-guanidine] | 7.82
N=C(N)NC(=O)c1ccc(C2CCN(C(=O)C3CCN(c4ncccn4)CC3)CC2)c(C(F)(F)F)c1 [N-{4-[1-(1-Pyrimidin-2-yl-piperidine-4-carbonyl)-piperidin-4-yl]-3-trifluoromethyl-benzoyl}-guanidine] | 7.15
Cc1cc(C2CCN(C(=O)c3ncc[nH]3)CC2)c(C(F)(F)F)cc1C(=O)NC(=N)N [N-{4-[1-(1H-Imidazole-2-carbonyl)-piperidin-4-yl]-2-methyl-5-trifluoromethyl-benzoyl}-guanidine] | 8.40
Cc1cc(C2CCN(C(=O)c3cc4ccccc4[nH]3)CC2)c(C(F)(F)F)cc1C(=O)NC(=N)N [N-{4-[1-(1H-Indole-2-carbonyl)-piperidin-4-yl]-2-methyl-5-trifluoromethyl-benzoyl}-guanidine] | 6.54
Cc1cc(C2CCN(C(=O)c3ccc4[nH]ccc4c3)CC2)c(C(F)(F)F)cc1C(=O)NC(=N)N [N-{4-[1-(1H-Indole-5-carbonyl)-piperidin-4-yl]-2-methyl-5-trifluoromethyl-benzoyl}-guanidine] | 7.33
N=C(N)NC(=O)c1ccc(C2CCN(C(=O)c3ccc[nH]3)CC2)cc1 [N-{4-[1-(1H-Pyrrole-2-carbonyl)-piperidin-4-yl]-benzoyl}-guanidine] | 6.41
N=C(N)NC(=O)c1ccc(C2CCN(C(=O)c3ccc[nH]3)C2)c(C(F)(F)F)c1 (centres unmarked) [N-{4-[1-(1H-Pyrrole-2-carbonyl)-pyrrolidin-3-yl]-3-trifluoromethyl-benzoyl}-guanidine] | 7.72

The next lines start with the values.

pIC50 | SMILES
7.52 | CCCC(=O)N1CCC(c2ccc(C(=O)NC(=N)N)cc2C(F)(F)F)CC1 [N-[4-(1-Butyryl-piperidin-4-yl)-3-trifluoromethyl-benzoyl]-guanidine]
7.11 | N=C(N)NC(=O)c1ccc(C2CCN(C(=O)C3CCCC3)CC2)c(C(F)(F)F)c1 [N-[4-(1-Cyclopentanecarbonyl-piperidin-4-yl)-3-trifluoromethyl-benzoyl]-guanidine]
7.80 | N=C(N)NC(=O)c1ccc(C2CCN(C(=O)C3CC3)CC2)c(C(F)(F)F)c1 [N-[4-(1-Cyclopropanecarbonyl-piperidin-4-yl)-3-trifluoromethyl-benzoyl]-guanidine]
7.60 | CC(C)C(=O)N1CCC(c2ccc(C(=O)NC(=N)N)cc2C(F)(F)F)CC1 [N-[4-(1-Isobutyryl-piperidin-4-yl)-3-trifluoromethyl-benzoyl]-guanidine]
7.92 | CCC(=O)N1CCC(c2ccc(C(=O)NC(=N)N)cc2C(F)(F)F)CC1 [N-[4-(1-Propionyl-piperidin-4-yl)-3-trifluoromethyl-benzoyl]-guanidine]
7.51 | N=C(N)NC(=O)c1ccc(C2CCN(C(=O)C3(N)CCC3)CC2)c(C(F)(F)F)c1 [N-{4-[1-(1-Amino-cyclobutanecarbonyl)-piperidin-4-yl]-3-trifluoromethyl-benzoyl}-guanidine]
7.48 | N=C(N)NC(=O)c1ccc(C2CCN(C(=O)C3(N)CCCCC3)CC2)c(C(F)(F)F)c1 [N-{4-[1-(1-Amino-cyclohexanecarbonyl)-piperidin-4-yl]-3-trifluoromethyl-benzoyl}-guanidine]
8.70 | N=C(N)NC(=O)c1ccc(C2CCN(C(=O)C3(N)CCCC3)CC2)c(C(F)(F)F)c1 [N-{4-[1-(1-Amino-cyclopentanecarbonyl)-piperidin-4-yl]-3-trifluoromethyl-benzoyl}-guanidine]
7.74 | N=C(N)NC(=O)c1ccc(C2CCN(C(=O)C3(N)CCc4ccccc43)CC2)c(C(F)(F)F)c1 (centres unmarked) [N-{4-[1-(1-Amino-indane-1-carbonyl)-piperidin-4-yl]-3-trifluoromethyl-benzoyl}-guanidine]
7.10 | Cn1cccc1C(=O)N1CCC(c2ccc(C(=O)NC(=N)N)cc2C(F)(F)F)CC1 [N-{4-[1-(1-Methyl-1H-pyrrole-2-carbonyl)-piperidin-4-yl]-3-trifluoromethyl-benzoyl}-guanidine]
8.00 | CN1CCCC(C(=O)N2CCC(c3ccc(C(=O)NC(=N)N)cc3C(F)(F)F)CC2)C1 (centres unmarked) [N-{4-[1-(1-Methyl-piperidine-3-carbonyl)-piperidin-4-yl]-3-trifluoromethyl-benzoyl}-guanidine]
9.52 | CN1CCC(C(=O)N2CCC(c3ccc(C(=O)NC(=N)N)cc3C(F)(F)F)CC2)CC1 [N-{4-[1-(1-Methyl-piperidine-4-carbonyl)-piperidin-4-yl]-3-trifluoromethyl-benzoyl}-guanidine]
7.34 | N=C(N)NC(=O)c1ccc(C2CCN(C(=O)c3ccc[nH]3)CC2)c(C(F)(F)F)c1 [N-{4-[1-(1H-Pyrrole-2-carbonyl)-piperidin-4-yl]-3-trifluoromethyl-benzoyl}-guanidine]
